{
  "source": "paper PMC6132053",
  "about": "“Virtual Screening and Biomolecular Interactions of CviR-Based Quorum Sensing Inhibitors Against Chromobacterium violaceum” (Frontiers in Cellular and Infection Microbiology, 2018)",
  "target": "T1, CviR (LuxR homologue) (Chromobacterium violaceum, UniProt D3W065)",
  "T1 construct": "CviR ORF in pET28a, SUMO + His-tag fusion, E. coli BL21 (DE3), Ni-Sepharose, eluted by ULP proteinase digestion; RED-NHS labelled",
  "T1 sequence (D3W065 1-265)": "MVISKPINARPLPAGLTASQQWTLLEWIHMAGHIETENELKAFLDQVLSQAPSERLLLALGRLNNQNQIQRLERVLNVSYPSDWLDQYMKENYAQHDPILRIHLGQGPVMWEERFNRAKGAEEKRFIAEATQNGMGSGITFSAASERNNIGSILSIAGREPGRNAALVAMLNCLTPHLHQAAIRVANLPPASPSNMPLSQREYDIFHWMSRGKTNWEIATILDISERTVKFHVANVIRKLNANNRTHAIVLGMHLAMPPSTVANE",
  "test": "microscale thermophoresis (RED-NHS labelled CviR)",
  "type": "binding",
  "key": {"[1]": {"details": "50 mM Tris-HCl, 150 mM NaCl, 10 mM MgCl2, 0.05% Tween-20, labelled protein, stated 20 μM CviR"}},
  "note": "Read-outs that look alike come from different tables or passages of the source.",
  "data": [
    {"compound": "O=C(/C=C/c1ccc(O)c(O)c1)c1ccc(O)cc1O", "note": "[BN1, Butein]", "values": [
      {"measurement": "Kd", "setting": "[1]", "value": "MST results suggested that all the QSIs except C7X have significant binding ability"}
    ]},
    {"compound": "CC(C)=CCc1cc2c(cc1O)O[C@H](c1ccc(O)cc1)CC2=O", "note": "[BN2, Bavachin]", "values": [
      {"measurement": "Kd", "value": "45.1 ± 1.9", "unit": "nM"}
    ]},
    {"compound": "Oc1ccc2c(c1)OC[C@](O)(Cc1ccc(O)c(O)c1)[C@H]2O", "note": "[SPL, Sappanol]", "values": [
      {"measurement": "Kd", "setting": "[1]", "value": "MST results suggested that all the QSIs except C7X have significant binding ability"}
    ]}
  ]
}
